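Exposure lasted 48 hours, with cells grown in 96-well plates and compounds tested at five concentrations. At the TGI there is no net growth.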
Columns and labels:
Experiment in all cases: inhibition of tumour cell growth, NCI panel, 48 h
[1] = system: A549 NSCLC
[2] = system: BT-549 breast
[3] = system: CAKI-1 renal
[4] = system: CCRF-CEM leukemia
[5] = system: HCC-2998 colon
[6] = system: LOX IMVI melanoma
[7] = system: NCI-H226 lung
[8] = system: NCI-H23 lung
[9] = system: NCI-H460 lung
[10] = system: NCI/ADR-RES ovarian
[11] = system: PC-3 prostate
[12] = system: SF-295 CNS
[13] = system: SW-620 colon
[14] = system: U251 CNS
[15] = system: UACC-62 melanoma
[16] = system: DU-145 prostate
[17] = system: SNB-75 CNS

| Structure (SMILES) | TGI [1] | TGI [2] | TGI [3] | TGI [4] | TGI [5] | TGI [6] | TGI [7] | TGI [8] | TGI [9] | TGI [10] | TGI [11] | TGI [12] | TGI [13] | TGI [14] | TGI [15] | TGI [16] | TGI [17] |
| --- | --- | --- | --- | --- | --- | --- | --- | --- | --- | --- | --- | --- | --- | --- | --- | --- | --- |
| CC(=O)OC1OC(c2ccoc2)C[C@@]12C1CCC3O[C@]3(C)[C@]1(C)[C@H](OC(C)=O)[C@H](OC(C)=O)[C@H]2C (stereo partly specified) | > 37.5 µM | > 37.5 µM | > 37.5 µM | > 37.5 µM | > 37.5 µM | > 37.5 µM | > 37.5 µM | > 37.5 µM | > 37.5 µM | > 37.5 µM | > 37.5 µM | > 37.5 µM | > 37.5 µM | > 37.5 µM | > 37.5 µM | – | – |
| C=C(Cl)/C(=C\Cl)CCC(Cl)C(C)C (stereo unspecified) | > 100 µM | > 100 µM | > 100 µM | > 100 µM | > 100 µM | > 100 µM | > 100 µM | > 100 µM | > 100 µM | > 100 µM | > 100 µM | > 100 µM | > 100 µM | > 100 µM | > 100 µM | > 100 µM | > 100 µM |
| O=C(c1ccco1)N(C(=S)N1CCN(c2ccccc2)CC1)C1CCCCC1 | > 100 µM | – | > 100 µM | > 100 µM | – | > 100 µM | – | > 100 µM | > 100 µM | – | – | > 100 µM | > 100 µM | > 100 µM | > 100 µM | – | > 100 µM |
| COc1cc2c(oc(=O)c3c4occc4cc(OC)c23)c2cccc(OCc3ccccc3)c12 | > 100 µM | – | > 100 µM | > 100 µM | > 100 µM | > 100 µM | > 100 µM | > 100 µM | > 100 µM | – | – | > 100 µM | > 100 µM | > 100 µM | > 100 µM | – | > 100 µM |
| c1ccc2c(c1)nn1c3ccc4nonc4c3[n-][n+]21 | > 100 µM | > 100 µM | > 100 µM | > 100 µM | > 100 µM | > 100 µM | > 100 µM | > 100 µM | > 100 µM | > 100 µM | > 100 µM | > 100 µM | > 100 µM | > 100 µM | > 100 µM | > 100 µM | > 100 µM |
| CCOC(=O)C(C)Sc1nnc(COc2ccc(Cl)cc2)n1-c1ccccc1 (stereo unspecified) | > 100 µM | – | 31.7 µM | 34 µM | 49 µM | 27.4 µM | 46.9 µM | 42.7 µM | 31.6 µM | – | – | 85.4 µM | 27.2 µM | 35.1 µM | 31.8 µM | – | > 100 µM |
| CC(C)(C)C1CCC2c3c([nH]c4ncccc34)C3C(=O)N(c4ccccc4)C(=O)C3C2C1 (stereo unspecified) | > 100 µM | – | > 100 µM | > 100 µM | > 100 µM | > 100 µM | > 100 µM | > 100 µM | > 100 µM | – | – | > 100 µM | > 100 µM | > 100 µM | > 100 µM | – | > 100 µM |
| Cc1ccc(/C=C/C(=N/NC(=O)N/N=C(/C=C/c2ccc(C)cc2)C(C)C)C(C)C)cc1 | > 10 µM | > 10 µM | > 10 µM | > 10 µM | > 10 µM | – | > 10 µM | > 10 µM | > 10 µM | > 10 µM | > 10 µM | > 10 µM | > 10 µM | > 10 µM | – | > 10 µM | – |
| Cc1c2n(c3ccccc13)S(=O)(=O)c1ccccc1-2 | > 100 µM | > 100 µM | 27.4 µM | > 100 µM | > 100 µM | > 100 µM | > 100 µM | > 100 µM | > 100 µM | > 100 µM | 61.3 µM | 53.2 µM | > 100 µM | 37.9 µM | > 100 µM | > 100 µM | – |
| [N-]=[N+]=NC1(c2ccccc2)C(=O)C(Cl)=C(c2ccccc2)N(c2ccccc2)C1=O (stereo unspecified) | > 100 µM | – | > 100 µM | > 100 µM | > 100 µM | > 100 µM | – | > 100 µM | > 100 µM | – | – | > 100 µM | > 100 µM | > 100 µM | > 100 µM | – | > 100 µM |
| N#C/C(c1nc2ccccc2[nH]1)=c1\s/c(=C(/N)O)c(=N)n1-c1ccccc1 | > 100 µM | – | > 100 µM | > 100 µM | – | > 100 µM | > 100 µM | > 100 µM | > 100 µM | – | – | > 100 µM | > 100 µM | > 100 µM | > 100 µM | – | > 100 µM |
| COCCOC(=O)NCn1cc(-c2ccccc2)nn1 | > 100 µM | > 100 µM | > 100 µM | > 100 µM | > 100 µM | > 100 µM | > 100 µM | > 100 µM | > 100 µM | > 100 µM | > 100 µM | > 100 µM | > 100 µM | > 100 µM | – | > 100 µM | – |
| COc1cc2oc(=O)cc(C)c2c(OC)c1O | > 100 µM | – | – | > 100 µM | – | > 100 µM | > 100 µM | > 100 µM | – | > 100 µM | > 100 µM | > 100 µM | > 100 µM | > 100 µM | > 100 µM | > 100 µM | > 100 µM |
